Laboratory results taken from patent publication US20230348520A1, “COMPOUND COMPRISING BETA-NICOTINAMIDE MONONUCLEOTIDE OR PHARMACOLOGICALLY ACCEPTABLE SALT THEREOF, AND METHOD FOR EVALUATING QUALITY AND METHOD FOR ASSESSING ENZYMATIC REACTIVITY OF SAID COMPOUND” (ORIENTAL YEAST CO., LTD., priority 2020, published 2023).

Key:
HEK293 cells [1] = assay: Cytotoxicity rate from intra- and extracellular AST activities in culture cells (Test Example 5); type: cell-based; details: nonadherent HEK293 cells; 0.1 mM β-NMN; shake-cultured seven days without exchange of the medium; FIGS. 5A, 5B
HEK293 cells [2] = assay: Intracellular NAD content in culture cells (Test Example 5); type: cell-based; details: nonadherent HEK293 cells; 0.1 mM β-NMN; shake-cultured seven days without exchange of the medium; FIGS. 6A, 6B
Procedure: In order to evaluate biological activities of the β-NMN compounds of Production Example 1 and the β-NMN product 3, culture cells were cultured in a medium containing the β-NMN compound, to measure change in intracellular NAD.
The culture cells used were HEK293 cells that had been treated to be nonadherent. The medium used was FreeStyle™ 293 Expression Medium (obtained from Thermo Fisher Scientific).
First, the HEK293 cells, which had been treated to be nonadherent, were disseminated in the medium so as to have a concentration of 1×10^6 cells/mL. The resulting medium was dispensed into six 125 mL-flasks by 30 mL each. The flasks were supplemented with the β-NMN compounds of Production Example 1 and the β-NMN product 3 so as to have a final concentration of 0 or 0.1 mM. Without exchange of the medium, the cells were shake-cultured for seven days in a CO2 incubator at 37° C.
After shake-culturing for seven days, the cells and the culture supernatant were recovered for various analyses. […] Specifically, the recovered cells were weighed and were extracted with Extraction buffer attached to a kit, and the resulting extract was measured for NAD. The intracellular NAD content was calculated based on a calibration curve obtained by measuring NAD solutions of various concentrations.

[3] = target: R-LDH5 (lactate dehydrogenase (LDH) 5, SEQ ID NO: 1, derived from skeletal muscle) (Oryctolagus cuniculus, UniProt P13491, L277I/T249S); assay: Evaluation of enzymatic reactivity with lactate dehydrogenase R-LDH5 (Test Examples 1 and 2); type: biochemical; details: 19 mM β-NMN in R1 reagent; R-LDH5 245 U/mL final; 37° C.; 340 nm; one unit = 0.1 mAbs change in absorbance per minute; average of three measurements
Text: The lactate dehydrogenase is preferably lactate dehydrogenase derived from mammalian skeletal muscle, and more preferably lactate dehydrogenase (LDH) 5 (hereinafter may be referred to as “R-LDHS”). The R-LDHS has an amino acid sequence as set forth in SEQ ID NO: 1, is composed of a tetramer of sub-units, and is derived from skeletal muscle. Other lactate dehydrogenases of any mammal can also be used, such as porcine lactate dehydrogenase (LDH) 1, human lactate dehydrogenase (LDH) 1, and human lactate dehydrogenase (LDH) 5. The LDH catalyzes dehydrogenation of lactic acid as a substrate, to convert the lactic acid to pyruvic acid. At this time, the β-NMN is converted to a reduced form of β-NMN (see FIG. 1).
In the present invention, the enzymatic reactivity refers to a value obtained through measurement using the following reagents and method.
(The purity of the β-NMN in a measurement sample is assumed to be 100%. Also, the β-NMN is dissolved in an 80 mM sodium carbonate solution in advance.)
The enzyme solution is prepared so that the LDH is to be 245 U/mL as a final concentration in a reaction liquid.
In the present invention, the activity unit (U) of the LDH is an activity unit measured by the human LDH measurement method according to IFCC when using NAD as a coenzyme.
An enzyme activity is measured using a 7180 type Hitachi automatic analyzer (obtained from Hitachi High-Tech Corporation). Measurement parameters are as follows.
Analysis method: Rate A Measurement wavelength (sub/main): 405 nm/340 nm Reaction duration: 10 minutes Photometric points: 20 to 24 Sample liquid (enzyme solution): 18 μL R1 reagent: 120 μL R2 reagent: 87 μL
18 μL of the enzyme solution and 120 μL of the R1 reagent are mixed. The resulting mixture is incubated at 37° C. for 4.5 minutes (photometric points 1 to 16), followed by addition of 87 μL of the R2 reagent, to initiate reaction (photometric point 17). From the absorbance of the measurement sample one to two minutes after initiation of the reaction (photometric points 20 to 24), the absorbance of water (blank) at the same photometric points is subtracted, to calculate a value of change in absorbance per minute (ΔmAbs/min). Regarding the activity unit (the unit of reactivity with the lactate dehydrogenase R-LDH5), 0.1 mAbs as the value of change in absorbance per minute is defined as one unit.
By the following method, the β-NMN compound of the present invention (Production Example 1) and β-NMN products 1 to 3 were measured for the enzymatic reactivity with R-LDHS (SEQ ID NO: 1). Note that, the measurement results are average values in the measurement performed three times.
(The purity of the β-NMN in a measurement sample was assumed to be 100%. Also, the β-NMN was dissolved in an 80 mM sodium carbonate solution in advance.)
The enzyme solution was prepared so that the R-LDH5 was to be 245 U/mL as a final concentration in a reaction liquid.
An enzyme activity was measured using a 7180 type Hitachi automatic analyzer (obtained from Hitachi High-Tech Corporation). Measurement parameters are as follows.
Analysis method: Rate A Measurement wavelength (sub/main): 405 nm/340 nm Reaction duration: 10 minutes Photometric points: 20 to 24 Sample liquid (enzyme solution): 18 μL
18 μL of the enzyme solution and 120 μL of the R1 reagent were mixed. The resulting mixture was incubated at 37° C. for 4.5 minutes (photometric points 1 to 16), followed by addition of 87 μL of the R2 reagent, to initiate reaction (photometric point 17). Measurements were taken for five minutes after initiation of the reaction. From the absorbance of the measurement sample at minute one to minute two after the initiation (photometric points 20 to 24), the absorbance of water (blank) at the same photometric points was subtracted, to calculate a value of change in absorbance per minute (ΔmAbs/min). Regarding the activity unit, 0.1 mAbs as the value of change in absorbance per minute was defined as one unit. […]

[4] = target: R-LDH5 (lactate dehydrogenase, SEQ ID NO: 1) (Oryctolagus cuniculus, UniProt P13491, L277I/T249S); assay: Dependency of LDH activity value on β-NMN compound concentration, R-LDH5 (Test Example 4); type: biochemical; details: R-LDH5 245 U/mL; for relative activity value of LDH, dependency on β-NMN concentration: 0-200 mM β-NMN in R1 reagent, compared with Production Example 1, FIGS. 4B, 4C
Procedure: (§1) In order to confirm dependency of a LDH activity value on the β-NMN compound concentration, the β-NMN compound produced in Production Example 1 and β-NMN products 1 to 3 the same as those used in Test Example 1 were used for measurement of an enzyme activity of LDH at varied concentrations of the β-NMN in the R1 reagent.
(§2) The enzyme activity of LDH was measured in the same manner as in [Evaluation of enzymatic reactivity] of Test Example 1 except that the following R1 reagent and enzyme solution were used, to calculate a value of change in absorbance per minute (ΔmAbs/min). Regarding as 100% the activity value of LDH when the β-NMN compound of Production Example 1 was used at 200 mM, the relative activity values (%) in each NMN at each concentration are presented in FIGS. 4A to 4F (FIGS. 4A to 4C: R-LDH5 and FIGS. 4D and 4F: human LDH1). Note that, the measurement results are average values in the measurement performed three times.
(§3) (The purity of the β-NMN in a measurement sample was assumed to be 100%. Also, the β-NMN was dissolved in a 100 mM sodium carbonate solution in advance.)
An enzyme solution was prepared so that the LDH was to be 245 U/mL as a final concentration in a reaction liquid.

[5] = target: human lactate dehydrogenase (LDH) 1 (SEQ ID NO: 2) (Homo sapiens, UniProt P07195); assay: Dependency of LDH activity value on β-NMN compound concentration, human LDH1 (Test Example 4); type: biochemical; details: human LDH1 45 U/mL; 0-200 mM β-NMN in R1 reagent; compared with Production Example 1; FIGS. 4D to 4F
Sequence of human lactate dehydrogenase (LDH) 1 (SEQ ID NO: 2) (P07195 whole entry): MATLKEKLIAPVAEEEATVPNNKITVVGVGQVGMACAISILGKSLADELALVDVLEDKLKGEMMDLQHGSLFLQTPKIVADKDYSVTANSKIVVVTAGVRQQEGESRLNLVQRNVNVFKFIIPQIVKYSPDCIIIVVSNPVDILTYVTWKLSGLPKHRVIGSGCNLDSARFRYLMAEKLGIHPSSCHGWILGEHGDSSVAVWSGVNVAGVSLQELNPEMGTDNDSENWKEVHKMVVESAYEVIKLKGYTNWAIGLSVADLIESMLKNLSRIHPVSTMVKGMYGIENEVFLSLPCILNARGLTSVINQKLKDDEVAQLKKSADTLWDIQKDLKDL
Procedure: as §1, §2, §3
An enzyme solution was prepared so that the LDH was to be 45 U/mL as a final concentration in a reaction liquid.

SMILES | cytotoxicity rate determined based on intra- and extracellular AST activities (HEK293 cells [1]) | intracellular NAD content (HEK293 cells [2]) | Enzymatic reactivity (unit) [3] [unit] | enzymatic activity of LDH at a β-NMN concentration of 200 mM ([4]; 200 mM β-NMN in R1 reagent, FIG. 4A) | relative activity value of LDH, dependency on β-NMN concentration [5] | relative activity value of LDH, dependency on β-NMN concentration [4]
NC(=O)c1ccc[n+]([C@@H]2O[C@H](COP(=O)([O-])O)[C@@H](O)[C@H]2O)c1 [Production Example 1, β-nicotinamide mononucleotide] | lower when the β-NMN compound of Production Example 1 was added than when the β-NMN compound of the β-NMN product 3 was added | higher when the β-NMN compound of Production Example 1 was added than when the β-NMN compound of the β-NMN product 3 was added | 39 |  |  | 
NC(=O)c1ccc[n+]([C@@H]2O[C@H](COP(=O)([O-])O)[C@@H](O)[C@H]2O)c1 [Production Example 2, β-nicotinamide mononucleotide] |  |  | 40 |  |  | 
NC(=O)c1ccc[n+]([C@@H]2O[C@H](COP(=O)([O-])O)[C@@H](O)[C@H]2O)c1 [Production Example 3, β-nicotinamide mononucleotide] |  |  | 38 |  |  | 
NC(=O)c1ccc[n+]([C@@H]2O[C@H](COP(=O)([O-])O)[C@@H](O)[C@H]2O)c1 [Production Example 4, β-nicotinamide mononucleotide] |  |  | 35 |  |  | 
NC(=O)c1ccc[n+]([C@@H]2O[C@H](COP(=O)([O-])O)[C@@H](O)[C@H]2O)c1 [β-NMN product 1, β-nicotinamide mononucleotide] |  |  | 23 | could not be measured | larger differences in the activity value from the β-NMN compound of Production Example 1 as the β-NMN concentration increased | 
NC(=O)c1ccc[n+]([C@@H]2O[C@H](COP(=O)([O-])O)[C@@H](O)[C@H]2O)c1 [β-NMN product 2, β-nicotinamide mononucleotide] |  |  | 27 |  | larger differences in the activity value from the β-NMN compound of Production Example 1 as the β-NMN concentration increased | the difference in the activity value from the β-NMN compound of Production Example 1 became larger as the β-NMN concentration increased
NC(=O)c1ccc[n+]([C@@H]2O[C@H](COP(=O)([O-])O)[C@@H](O)[C@H]2O)c1 [β-NMN product 3, β-nicotinamide mononucleotide] |  |  | 26 |  | larger differences in the activity value from the β-NMN compound of Production Example 1 as the β-NMN concentration increased | the difference in the activity value from the β-NMN compound of Production Example 1 became larger as the β-NMN concentration increased
